Earlier results on 2 compounds are cited in publication PMC8476002, “Bergamottin a CYP3A inhibitor found in grapefruit juice inhibits prostate cancer cell growth by downregulating androgen receptor signaling and promoting G0/G1 cell cycle block and apoptosis” (PLoS ONE, 2021).

The test system of series [1] is cytoplasmic AR. Also noted: method as in PMID 32316460. To be noted: cited from earlier work.
The subject of series [2] is cell growth. The conditions noted are these: earlier work of the authors; cited from earlier work.

Turning to `CC(C)c1nc(CN(C)C(=O)N[C@H](C(=O)N[C@@H](Cc2ccccc2)C[C@H](O)[C@H](Cc2ccccc2)NC(=O)OCc2cncs2)C(C)C)cs1` [ritonavir], in series [1], the “cytoplasmic AR” value is listed as “increase in cytoplasmic AR”.
`CC[C@]1(C)C[C@@H](OC(=O)CSc2nnc(N)[nH]2)[C@]2(C)[C@H](C)CC[C@]3(CCC(=O)[C@H]32)[C@@H](C)[C@@H]1O` [azamulin]: the cell growth entry in series [2] is “cell growth is inhibited”.
